Data published in patent US20220265656A1, “COMBINATION THERAPIES WITH IRE1 SMALL MOLECULE INHIBITORS” (Cornell University, priority 2019, published 2022).
Structures can show the parent of a compound that is named as a salt.

Columns and labels:
IRE1a [1] = target: T1, IRE1a (Homo sapiens, UniProt O75460); experiment: IRE1a Endoribonuclease Nanoluciferase Assay in 293T cells; assay type: cell-based; design: endogenous in cells; host or cells: 293T cells; conditions: XBP1 luciferase reporter in 293T cells, ER stressor
T1 sequence (O75460 19-977): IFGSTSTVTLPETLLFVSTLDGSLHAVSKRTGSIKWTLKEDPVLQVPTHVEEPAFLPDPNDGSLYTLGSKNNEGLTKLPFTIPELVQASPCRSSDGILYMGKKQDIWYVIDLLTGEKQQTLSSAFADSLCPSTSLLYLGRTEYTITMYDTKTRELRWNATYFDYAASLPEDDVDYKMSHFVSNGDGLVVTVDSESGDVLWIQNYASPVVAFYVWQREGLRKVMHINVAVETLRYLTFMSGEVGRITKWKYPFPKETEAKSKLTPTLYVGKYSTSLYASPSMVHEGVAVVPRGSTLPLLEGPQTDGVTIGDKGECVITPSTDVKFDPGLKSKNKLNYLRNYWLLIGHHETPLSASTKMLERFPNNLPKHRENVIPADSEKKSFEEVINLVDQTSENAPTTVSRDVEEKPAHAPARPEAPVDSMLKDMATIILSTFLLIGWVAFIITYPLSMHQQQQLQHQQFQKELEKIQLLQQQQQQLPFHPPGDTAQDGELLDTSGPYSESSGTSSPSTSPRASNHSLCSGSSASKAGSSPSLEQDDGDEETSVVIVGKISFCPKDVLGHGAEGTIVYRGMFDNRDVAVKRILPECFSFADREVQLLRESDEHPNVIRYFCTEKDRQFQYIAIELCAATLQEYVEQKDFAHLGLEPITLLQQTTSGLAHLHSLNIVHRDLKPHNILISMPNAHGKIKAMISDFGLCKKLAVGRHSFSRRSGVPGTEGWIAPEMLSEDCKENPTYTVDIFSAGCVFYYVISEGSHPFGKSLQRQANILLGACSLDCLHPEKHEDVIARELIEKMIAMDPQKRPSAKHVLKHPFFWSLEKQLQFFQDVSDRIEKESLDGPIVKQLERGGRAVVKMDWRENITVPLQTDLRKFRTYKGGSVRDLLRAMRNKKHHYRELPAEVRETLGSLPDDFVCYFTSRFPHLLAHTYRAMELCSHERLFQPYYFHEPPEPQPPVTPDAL
Experimental: Compounds disclosed herein were assessed for disruption of IRE1 signaling using a IRE1a Endoribonuclease Nanoluciferase Assay. Briefly, 2.5×10^6 293T cells were seeded in a 10 cm^2 tissue culture plate. About 24 hours later, the cells were transfected with Effectene. In a 15 mL tube, the following was added: 2 ug XBP1 luciferase reporter plasmid (PGK-Luc2-P2A-XBP1u-Nanoluciferase-PEST); 300 ul EC buffer; and 16 ul Enhancer, followed by incubation at room temp for 5 minutes. Next, 60 ul Effectene (Qiagen 301427) was added, followed by incubation at room temperature for 10 minutes, 2.6 mL cDMEM media was added. Old media was aspirated from the cells, followed by addition of 7 mL fresh media. Full transfection mixture was added dropwise to cells. Cells were incubated for 6 hours, followed by trypsinization, centrifugation and resuspension in 11 mL fresh cDMEM media, 100 uL of cells were plated per a well in a 96 well plate. A day later, ER stressors of choice +/−inhibitors were added. To harvest, media was aspirated from cells completely, then 50 uL 1× passive lysis buffer (Promega: E1941) was added per well and put on shaker (300 rpm) for 30 minutes at room temperature. Cells were centrifuged, and 15 uL sample per well was added to a new, opaque white 384 well plate (Corning 3570), 15 uL OneGlo (nanoluciferase kit, Promega N1630) was added. Plates were spun down, placed on shaker (300 rpm) for 10 minutes. Plates were read on luminometer, 1000 ms integration time per well, 15 uL Stop and Glo (nanoluciferase kit) was added. Plates were spun down, placed on shaker (300 rpm) for 10 minutes. Plates were read on luminometer, 1000 ms second integration time per well. Recordings are provided below in Table 4.

IRE1a [2] = target: T1, IRE1a; experiment: In vitro FRET assay (IRE1a cleavage of XBP1 RNA probe); assay type: biochemical; design: purchased SignalChem; conditions: 2 nM IRE1a
Experimental: In vitro FRET assay was performed to evaluate the ability of select compounds to inhibit IRE1, the results of which are summarized in Table 3. To perform the in vitro FRET assay, 1× complete assay buffer (CAB; […], 50 mM sodium citrate pH 7.15, 1 mM magnesium acetate, 0.02% tween 20) was used to dilute SignalChem IRE1a protein to a final concentration of 2 nM. Selected compounds were serially diluted with DMSO in a non-binding black 384-well plate for a total of 15 ul in each well, 2 ul of the serially diluted compound or DMSO control were then added to new wells containing 98 ul of 1×CAB, for a total volume of 100 ul, 10 ul of which were then transferred to wells of a new plate, 5 ul of the diluted IRE1a was then added to each well, 5 ul of a […] XBP1 RNA probe was then added to each well. Fluorescence was then read over 30 minutes in kinetic mode (485/515 nm).
Two RNA probes were used, XBP1 wildtype (SEQ ID NO: 2) which is able to be spliced by active IRE1a or XBP1 mutant (SEQ ID NO: 3) which is unable to be spliced. Each probe contained a 5′ 6-FAM modification and a 3′ IOWA Black FQ modification. […]

Row | Structure (SMILES) | EC50 (IRE1a [1]) | IC50 (IRE1a [2]) | Mean EC50 (IRE1a [1])
1 | CCc1cc(-c2cc(NS(=O)(=O)c3ccccc3Cl)n[nH]2)cc2cnc(N[C@H]3CC[C@H](N)CC3)nc12 [29; Formic Acid Salt] | 100 to 10000 nM | – | –
2 | CCc1cc(-c2ccc(N(C)S(=O)(=O)c3ccccc3Cl)cc2C)cc2cnc(N[C@H]3CC[C@H](N)CC3)nc12 [31; Formic Acid Salt] | – | 100 to 10000 nM | –
3 | N[C@H]1CC[C@H](Nc2ncc3cc(-c4cc(F)c(NS(=O)(=O)c5ccccc5Cl)cc4F)ccc3n2)CC1 [53; Formic Acid Salt] | ≤ 5 nM | ≤ 5 nM | –
4 | CCc1cc(-c2ccc(NS(=O)(=O)c3ccccc3Cl)nn2)cc2cnc(N[C@H]3CC[C@H](NC)CC3)nc12 [61; Formic Acid Salt] | ≤ 5 nM | ≤ 5 nM | –
5 | CCc1cc(-c2ccc(NS(=O)(=O)c3ccccc3Cl)nn2)cc2cnc(N[C@H]3CC[C@H](N(C)C)CC3)nc12 [64; Formic Acid Salt] | ≤ 5 nM | ≤ 5 nM | –
6 | CCc1cc(-c2ccc(NS(=O)(=O)c3ccccc3Cl)c(F)c2)cc2cnc(N[C@@H]3CCC[C@H](N)C3)nc12 [72; Formic Acid Salt] | 100 to 10000 nM | – | –
7 | N[C@H]1CCC[C@@H](Nc2ncc3cc(-c4ccc(NS(=O)(=O)c5ccccc5Cl)c(F)c4)ccc3n2)C1 [75; Formic Acid Salt] | 100 to 10000 nM | ≤ 5 nM | –
8 | N[C@H]1CC[C@@H](Nc2ncc3cc(-c4ccc(NS(=O)(=O)c5ccccc5Cl)c(F)c4)ccc3n2)C1 [80; Formic Acid Salt] | 100 to 10000 nM | – | –
9 | CCc1cc(-c2ccc(NS(=O)(=O)c3ccccc3Cl)c(F)c2)cc2cnc(N[C@H]3CC[C@H](N4CCCC4)CC3)nc12.O=CO [88; Formic Acid Salt] | – | – | ,
10 | N[C@H]1CC[C@H](Nc2ncc3cc(-c4nnc(NS(=O)(=O)c5ccccc5Cl)s4)ccc3n2)CC1 [89; Formic Acid Salt] | 100 to 10000 nM | – | –
11 | CCc1cc(-c2cnc(NS(=O)(=O)c3ccccc3Cl)cc2OC)cc2cnc(N[C@H]3CC[C@H](N)CC3)nc12 [92; Formic Acid Salt] | 100 to 10000 nM | – | –
12 | CCc1cc(-c2cnc(NS(=O)(=O)c3ccccc3Cl)c(F)c2)cc2cnc(N[C@H]3CC[C@H](N(C)C)CC3)nc12 [95; Formic Acid Salt] | ≤ 5 nM | ≤ 5 nM | –
13 | CCc1cc(-c2ccc(NS(=O)(=O)c3ccccc3Cl)nc2OC)cc2cnc(N[C@H]3CC[C@H](N(C)C)CC3)nc12 [99; Formic Acid Salt] | ≤ 5 nM | ≤ 5 nM | –
14 | CCc1nc(NS(=O)(=O)c2ccccc2Cl)ccc1-c1cc(CC)c2nc(N[C@H]3CC[C@H](N(C)C)CC3)ncc2c1 [117; Formic Acid Salt] | ≤ 5 nM | ≤ 5 nM | –
15 | CCc1cc(-c2ccc(NS(=O)(=O)c3ccccc3C)nc2OC)cc2cnc(N[C@H]3CC[C@H](N(C)C)CC3)nc12 [119; Formic Acid Salt] | ≤ 5 nM | ≤ 5 nM | –
16 | CCc1cc(-c2ccc(NS(=O)(=O)c3ccccc3Cl)nc2C)cc2cnc(N[C@H]3CC[C@H](N(C)CC(F)(F)F)CC3)nc12 [126; Formic Acid Salt] | – | 50 to 100 nM | –
17 | CCc1cc(-c2cc(F)c(NS(=O)(=O)c3ccccc3Cl)nc2OC)cc2cnc(N[C@H]3CC[C@H](NC)CC3)nc12 [127; Formic Acid Salt] | ≤ 5 nM | ≤ 5 nM | –
18 | CCc1cc(-c2cc(F)c(NS(=O)(=O)c3ccccc3Cl)nc2OC)cc2cnc(N[C@H]3CC[C@H](N(C)C)CC3)nc12 [128; Formic Acid Salt] | ≤ 5 nM | ≤ 5 nM | –
19 | CCc1cc(-c2ccc(NS(=O)(=O)c3ccccc3Cl)nc2C)cc2cnc(N[C@H]3CC[C@H](N(C)CC4CCC4)CC3)nc12 [130; Formic Acid Salt] | ≤ 5 nM | ≤ 5 nM | –

Row | Structure (SMILES) | EC50 (IRE1a [1]) | IC50 (IRE1a [2]) | Mean EC50 (IRE1a [1])
20 | Cc1nc(NS(=O)(=O)c2ccccc2Cl)ccc1-c1cc(C(C)(F)F)c2nc(N[C@H]3CC[C@H](N(C)C)CC3)ncc2c1 [131; Formic Acid Salt] | ≤ 5 nM | ≤ 5 nM | –
21 | CCc1cc(-c2ccc(NS(=O)(=O)c3ccccc3Cl)nc2C)cc2cnc(N[C@H]3CC[C@H](N(C)CCOC)CC3)nc12 [132; Formic Acid Salt] | ≤ 5 nM | ≤ 5 nM | –
22 | COc1nc(NS(=O)(=O)c2ccccc2Cl)ccc1-c1cc(C)c2nc(N[C@H]3CC[C@H](N(C)C)CC3)ncc2c1 [133; Formic Acid Salt] | ≤ 5 nM | ≤ 5 nM | –
23 | COc1nc(NS(=O)(=O)c2ccccc2Cl)ccc1-c1cc(C(F)(F)F)c2nc(N[C@H]3CC[C@H](N(C)C)CC3)ncc2c1 [135; Formic Acid Salt] | ≤ 5 nM | ≤ 5 nM | –
24 | COCc1cc(-c2ccc(NS(=O)(=O)c3ccccc3Cl)nc2OC)cc2cnc(N[C@H]3CC[C@H](N(C)C)CC3)nc12 [137; Formic Acid Salt] | ≤ 5 nM | ≤ 5 nM | –
25 | COc1nc(NS(=O)(=O)c2ccccc2Cl)ccc1-c1cc(C)c2nc(N[C@H]3CC[C@@H](N(C)C)CC3)ncc2c1 [139; Formic Acid Salt] | – | 5 to 50 nM | –
26 | CCc1cc(-c2ccc(NS(=O)(=O)c3ccccc3Cl)nc2OC)cc2cnc(N[C@H]3CC[C@@H](N(C)C)CC3)nc12 [141; Formic Acid Salt] | 100 to 10000 nM | ≤ 5 nM | –
27 | CCc1cc(-c2cc(F)c(NS(=O)(=O)c3ccccc3Cl)nc2OC)cc2cnc(N[C@H]3CC[C@@H](N(C)C)CC3)nc12 [142; Formic Acid Salt] | – | 5 to 50 nM | –
28 | CCc1cc(-c2ccc(NS(=O)(=O)c3ccccc3Cl)nc2OC)cc2cnc(N[C@H]3CC[C@@](C)(N(C)C)CC3)nc12 [143; Formic Acid Salt] | – | 5 to 50 nM | –
29 | COc1nc(NS(=O)(=O)c2ccccc2Cl)c(F)cc1-c1cc(C)c2nc(N[C@H]3CC[C@H](N(C)C)CC3)ncc2c1 [145; Formic Acid Salt] | ≤ 5 nM | ≤ 5 nM | –
30 | COc1nc(NS(=O)(=O)c2ccccc2Cl)c(F)cc1-c1cc(C)c2nc(N[C@H]3CC[C@@H](N(C)C)CC3)ncc2c1 [147; Formic Acid Salt] | – | 5 to 50 nM | –
31 | COc1nc(NS(=O)(=O)c2ccccc2Cl)ccc1-c1cc(F)c2nc(N[C@H]3CC[C@H](N(C)C)CC3)ncc2c1 [148; Formic Acid Salt] | ≤ 5 nM | ≤ 5 nM | –
32 | COc1nc(NS(=O)(=O)c2ccccc2Cl)c(F)cc1-c1ccc2nc(N[C@H]3CC[C@H](N(C)C)CC3)ncc2c1 [149; Formic Acid Salt] | 5 to 50 nM | ≤ 5 nM | –
33 | CN[C@H]1CC[C@H](Nc2ncc3cc(-c4cc(F)c(NS(=O)(=O)c5ccccc5Cl)nc4OC)ccc3n2)CC1 [150; Formic Acid Salt] | 5 to 50 nM | ≤ 5 nM | –
34 | CCc1cc(-c2ccc(NS(=O)(=O)c3ccccc3Cl)nc2C)cc2cnc(N[C@H]3CC[C@H](N(C)C)C[C@@H]3F)nc12 [151; Formic Acid Salt] | ≤ 5 nM | ≤ 5 nM | –
35 | CCc1cc(-c2ccc(NS(=O)(=O)c3cccc(Cl)c3Cl)nc2C)cc2cnc(N[C@H]3CC[C@H](N(C)C)CC3)nc12 [152; Formic Acid Salt] | ≤ 5 nM | ≤ 5 nM | –
36 | Cc1nc(NS(=O)(=O)c2ccccc2Cl)c(F)cc1-c1ccc2nc(N[C@H]3CC[C@H](N(C)C)CC3)ncc2c1 [153; Formic Acid Salt] | 5 to 50 nM | ≤ 5 nM | –
37 | Cc1nc(NS(=O)(=O)c2ccccc2Cl)c(F)cc1-c1cc(F)c2nc(N[C@H]3CC[C@H](N(C)C)CC3)ncc2c1 [156; Formic Acid Salt] | – | 100 to 10000 nM | –
